EP4813463A2, “TYK2 INHIBITORS AND COMPOSITIONS AND METHODS THEREOF” (Lynk Pharmaceuticals Co. Ltd., priority 2023, dated 2024)
Like-named read-outs stand apart in the source and are kept apart here.

What was measured:
[1] = Microsomal metabolic stability assay; format: in vitro ADME; conditions: human, liver microsomes, 0.5 mg/mL microsomal protein, 1 µM test article, 2 mM NADPH; for half-life at 1 µM: read-out: Human LM T1/2; for microsomal CLint at 1 µM: read-out: Human LM Clint
Method in brief: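 Test or control compound (1 µM) incubated with microsomes (0.5 mg/mL protein) in 100 mM potassium phosphate pH 7.4, 1.0 mM EDTA at 37°C, started with NADPH regenerating system (2 mM NADPH). Sampled at 0, 5, 15, 30, 45 min, acetonitrile-quenched, LC/MS/MS. T1/2 from ln %remaining vs time slope; CLint = 0.693/T1/2 per mg protein/mL.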

Caco-2 cell permeability = format: in vitro ADME; conditions: human, Caco-2, 10.0 µM, no p-gp inhibitor
Description: (§1) Compounds permeability was evaluated using Caco-2 cell lines. HBSS buffer was used as transfer buffer. Appropriate dosing and receiver solutions were applied to the donor and receiver chambers to initiate the transport assay in apical to basolateral (A to B) or basolateral to apical (B to A) directions. Compounds were tested at 10.0 µM in the absence of p-gp inhibitor bidirectionally in duplicates. After incubation at 37°C for 90 mins, donor and receiver samples were analyzed by LC-MS/MS. The intestinal absorption potential was assessed using Papp value and efflux ratio.

Caco-2 cell lines = test: Caco-2 cell permeability; format: in vitro ADME; conditions: Caco-2; result in words
Description: as §1

JAK1 = target: T1, JAK1 (Homo sapiens, UniProt P23458); test: JAK1 kinase activity, microfluidic assay (Caliper EZ Reader II, FAM labeled peptide substrate); format: biochemical; conditions: JAK1 10 nM, 1 mM ATP
T1 construct: purchased Carna Biosciences
Description: (§2) Testing for JAK1, JAK2 and TYK2 Kinase Activities
(§3) JAK activity was determined in the reaction buffer 50 mM HEPES, 0.01% Brij35, 10 mM MgCl2, 2 mM DTT by a microfluidic assay. The phosphorylation of a FAM labeled peptide substrate was monitored in the Caliper EZ Reader II (Perkin Elmer). The assay condition for each batch of enzyme (Carna Biosciences) was optimized to obtain 10% conversion rate of peptide substrate.
(§4) The test compounds were dissolved in DMSO to a stock concentration of 10 mM. Three-fold serially diluted compounds with top concentration of 5 µM were pre-incubated with JAK1, JAK2 or TYK2 for 10 min at ambient temperature. The final DMSO concentration of assay mixture was 1%. […] The reaction was stopped by adding 50 mM EDTA.
(§5) And the well without compound but with equivalent DMSO was defined as no inhibition. The percent inhibition was calculated by the following formula: % Inhibition = (Conversion%_max−Conversion%_sample)/(Conversion%_max−Conversion%_min) × 100 [formula] wherein • Conversion%_ max = the conversion rate in the positive well without addition of compound • Conversion%_ sample = the conversion rate of test compounds • Conversion%_ min = the conversion rate in the well without addition of enzyme
(§6) The dose-response (percent inhibition) curve was plotted and IC50 values were determined by GraphPad software. The IC50 values of tested compounds were list in Table 3. Table 3. JAK1, JAK2 and TYK2 IC50 Values of Illustrative Compounds

TYK2 = target: T2, TYK2 (Homo sapiens, UniProt P29597); test: TYK2 kinase activity, microfluidic assay (Caliper EZ Reader II, FAM labeled peptide substrate); format: biochemical; conditions: TYK2 20 nM, 1 mM ATP
T2 construct: purchased Carna Biosciences
T2 sequence (P29597 897-1176 limits assumed): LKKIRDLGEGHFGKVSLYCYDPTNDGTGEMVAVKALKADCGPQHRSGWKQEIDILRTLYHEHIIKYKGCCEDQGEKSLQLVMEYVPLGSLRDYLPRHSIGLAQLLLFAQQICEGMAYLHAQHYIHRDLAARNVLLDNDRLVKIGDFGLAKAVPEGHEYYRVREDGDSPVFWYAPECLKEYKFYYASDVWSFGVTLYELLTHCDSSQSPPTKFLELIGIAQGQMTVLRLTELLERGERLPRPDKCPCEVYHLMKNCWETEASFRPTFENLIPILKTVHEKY
Description: as §2, §3, §4, §5, §6

pSTAT1 = test: Phosphorylation inhibition of STAT in human whole blood (IFN-alpha stimulated, flow cytometry); format: cell-based; conditions: T-cell, 20 min, IFN-alpha stimulation 20 mins, CD3 T cells, read-out: pSTAT1 inhibition in hWB (IC50)
Method in brief: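 Fresh human whole blood stimulated 20 min with human universal type I IFN-alpha, then fixed, permeabilised and stained for CD3 and pSTAT1 (Y701). pSTAT1 in T cells read by flow cytometry; IC50 from 4-parameter logistic fit.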

[2] = read-out: Efflux Ratio: Papp(B-A)/Papp(A-B)

T1 sequence (P23458 875-1153 limits assumed): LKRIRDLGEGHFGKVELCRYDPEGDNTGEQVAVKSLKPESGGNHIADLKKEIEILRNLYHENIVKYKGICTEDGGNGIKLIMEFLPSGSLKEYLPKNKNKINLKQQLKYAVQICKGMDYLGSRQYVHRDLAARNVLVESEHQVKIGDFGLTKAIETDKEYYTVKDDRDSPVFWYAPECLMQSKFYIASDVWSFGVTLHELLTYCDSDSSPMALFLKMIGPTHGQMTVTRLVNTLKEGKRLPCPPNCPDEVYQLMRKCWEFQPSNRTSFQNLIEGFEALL

| Structure (SMILES) | half-life at 1 µM ([1]; pH 7.4) | microsomal CLint at 1 µM [1] | Papp A→B at 1.5 h, 10 µM (Caco-2 cell permeability; 90 mins, A to B) | Papp B→A at 1.5 h, 10 µM (Caco-2 cell permeability; 90 mins, B to A) | efflux ratio at 1.5 h, 10 µM (Caco-2 cell permeability; [2]) | efflux ratio compared with the amide compounds 21,23,25,33,49A and BMS986165 (Caco-2 cell lines) | IC50 (JAK1) | IC50 (TYK2) | IC50 (pSTAT1) | microsomal CLint at 1 µM ([1]; pH 7.4) | Papp A→B at 90 min, 10 µM (Caco-2 cell permeability; 90 mins, A to B) | Papp B→A at 90 min, 10 µM (Caco-2 cell permeability; 90 mins, B to A) | efflux ratio at 90 min, 10 µM (Caco-2 cell permeability; [2]) |
| --- | --- | --- | --- | --- | --- | --- | --- | --- | --- | --- | --- | --- | --- |
| COC(=O)c1cnc(NC(=O)[C@@H]2C[C@@H]2F)cc1Nc1nn(C)c2ccc(C(O)C(F)(F)F)c(OC)c12 (single isomer, unassigned) [Example 122A, Methyl 6-((1S,2S)-2-fluorocyclopropane-1-carboxamido)-4-((4-methoxy-1-methyl-5-((S*)-2,2,2-trifluoro-1-hydroxyethyl)-1H-indazol-3-yl)amino) nicotinate] | 1.49 h | 15.5 µL/min/mg | 27.4 ×10⁻⁶ cm/s | 45.3 ×10⁻⁶ cm/s | 1.65 | lower efflux ratio numbers | – | – | – | – | – | – | – |
| [2H]C([2H])([2H])NC(=O)c1cnc(NC(=O)C2CC2)cc1Nc1cnn2ccc([C@H](O)C(F)(F)F)c(OC)c12 [Example 7A, (S)-6-(cyclopropanecarboxamido)-4-((4-methoxy-5-(2,2,2-trifluoro-1-hydroxyethyl)pyrazolo[1,5-a]pyridin-3-yl)amino)-N-(methyl-d3)nicotinamide] | 1.48 h | – | – | – | – | – | > 20 µM | > 20 µM | 0.0312 µM | 15.6 µL/min/mg | – | – | – |
| [2H]C([2H])([2H])NC(=O)c1cnc(NC(=O)C2CC2)cc1Nc1cnn2ccc([C@@H](O)C(F)(F)F)c(OC)c12 [Example 7B, (R)-6-(cyclopropanecarboxamido)-4-((4-methoxy-5-(2,2,2-trifluoro-1-hydroxyethyl)pyrazolo[1,5-a]pyridin-3-yl)amino)-N-(methyl-d3)nicotinamide] | 2.14 h | – | – | – | – | – | > 20 µM | > 20 µM | 1.01 µM | 10.8 µL/min/mg | – | – | – |
| [2H]C([2H])([2H])NC(=O)c1cnc(Nc2ccn(C)n2)cc1Nc1cnn2ccc([C@H](O)C(F)(F)F)c(OC)c12 [Example 21, (S)-4-((4-methoxy-5-(2,2,2-trifluoro-1-hydroxyethyl)pyrazolo[1,5-a]pyridin-3-yl)amino)-N-(methyl-d3)-6-((1-methyl-1H-pyrazol-3-yl)amino)nicotinamide] | 1.01 h | – | – | – | – | – | > 20 µM | > 20 µM | 0.0227 µM | 22.8 µL/min/mg | 0.71 ×10⁻⁶ cm/s | 47.4 ×10⁻⁶ cm/s | 67 |
| [2H]C([2H])([2H])NC(=O)c1cnc(Nc2cc(C)nc(C)n2)cc1Nc1cnn2ccc([C@H](O)C(F)(F)F)c(OC)c12 [Example 25, (S)-6-((2,6-Dimethylpyrimidin-4-yl)amino)-4-((4-methoxy-5-(2,2,2-trifluoro-1-hydroxyethyl)pyrazolo[1,5-a]pyridin-3-yl)amino)-N-(methyl-d3)nicotinamide] | – | – | – | – | – | – | > 20 µM | > 20 µM | 0.0308 µM | – | 2.57 ×10⁻⁶ cm/s | 62.3 ×10⁻⁶ cm/s | 24.2 |
| [2H]C([2H])([2H])NC(=O)c1cnc(NC(=O)C2CC2)cc1Nc1cnn2ccc([C@H](OC)C(F)(F)F)c(OC)c12 [Example 27, (S)-6-(cyclopropanecarboxamido)-4-((4-methoxy-5-(2,2,2-trifluoro-1-methoxyethyl)pyrazolo[1,5-a]pyridin-3-yl)amino)-N-(methyl-d3)nicotinamide] | – | – | – | – | – | – | > 20 µM | > 20 µM | 0.0512 µM | – | – | – | – |
| [2H]C([2H])([2H])NC(=O)c1nnc(NC(=O)C2CC2)cc1Nc1cnn2ccc([C@H](O)C(F)(F)F)c(OC)c12 [Example 30, (S)-6-(cyclopropanecarboxamido)-4-((4-methoxy-5-(2,2,2-trifluoro-1-hydroxyethyl)pyrazolo[1,5-a]pyridin-3-yl)amino)-N-(methyl-d3)pyridazine-3-carboxamide] | 1.36 h | – | – | – | – | – | > 20 µM | > 20 µM | 0.0522 µM | 17 µL/min/mg | – | – | – |
| COC(=O)c1cnc(NC(=O)C2CC2)cc1Nc1nn(C)c2ccc([C@H](OC)C(F)(F)F)c(OC)c12 [Example 45B, Methyl (S)-6-(cyclopropanecarboxamido)-4-((4-methoxy-1-methyl-5-(2,2,2-trifluoro-1-methoxyethyl)-1H-indazol-3-yl)amino)nicotinate] | 1.26 h | – | – | – | – | lower efflux ratio numbers | – | – | – | 18.4 µL/min/mg | 7.27 ×10⁻⁶ cm/s | 5.65 ×10⁻⁶ cm/s | 0.78 |
| COC(=O)c1cnc(NC(=O)C2CC2)cc1Nc1nn(C)c2ccc([C@H](O)C(F)(F)F)c(OC)c12 [Example 48A, Methyl (S)-6-(cyclopropanecarboxamido)-4-((4-methoxy-1-methyl-5-(2,2,2-trifluoro-1-hydroxyethyl)-1H-indazol-3-yl)amino)nicotinate] | – | – | – | – | – | lower efflux ratio numbers | > 5 µM | > 5 µM | 0.0291 µM | – | 29.9 ×10⁻⁶ cm/s | 29 ×10⁻⁶ cm/s | 0.97 |
| [2H]C([2H])([2H])NC(=O)c1cnc(NC(=O)C2CC2)cc1Nc1nn(C)c2ccc([C@H](O)C(F)(F)F)c(OC)c12 [Example 49A, (S)-6-(cyclopropanecarboxamido)-4-((4-methoxy-1-methyl-5-(2,2,2-trifluoro-1-hydroxyethyl)-1H-indazol-3-yl)amino)-N-(methyl-d3)nicotinamide] | 1.19 h | – | – | – | – | – | > 5 µM | > 5 µM | 0.0105 µM | 19.3 µL/min/mg | 1.32 ×10⁻⁶ cm/s | 66.6 ×10⁻⁶ cm/s | 50.3 |
| [2H]C([2H])([2H])O[C@@H](c1ccc2c(c(Nc3cc(NC(=O)C4CC4)ncc3C(=O)OC)nn2C)c1OC)C(F)(F)F [Example 50B, Methyl (S)-6-(cyclopropanecarboxamido)-4-((4-methoxy-1-methyl-5-(2,2,2-trifluoro-1-(methoxy-d3)ethyl)-1H-indazol-3-yl)amino)nicotinate] | 2.11 h | – | – | – | – | – | > 5 µM | > 5 µM | 0.0565 µM | 10.9 µL/min/mg | – | – | – |
| [2H]C([2H])([2H])NC(=O)c1cnc(NC(=O)C2CC2)cc1Nc1nn(C)c2ccc([C@H](OC([2H])([2H])[2H])C(F)(F)F)c(OC)c12 [Example 55A, (S)-6-(cyclopropanecarboxamido)-4-((4-methoxy-1-methyl-5-(2,2,2-trifluoro-1-(methoxy-d3)ethyl)-1H-indazol-3-yl)amino)-N-(methyl-d3)nicotinamide] | – | – | – | – | – | – | > 5 µM | > 5 µM | 0.0248 µM | – | – | – | – |
